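Protocol summary: plate cells (96-well), add compound at 5 concentrations, incubate 48 h, interpolate endpoints linearly. Abbreviation: GI50, concentration required for 50% inhibition of growth.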 Active and inactive are the calls of the source. Rule as the data show it: active = GI50 up to about 1.1 µM and inactive = higher.
Assays:
Test in all cases: NCI-60 cell line screen, 48 h
A498 = test system: A498
A549 = test system: A549
CCRF-CEM = test system: CCRF-CEM
EKVX = test system: EKVX
HCT-15 = test system: HCT-15
IGROV-1 = test system: IGROV-1
MCF7 = test system: MCF7
NCI-H23 = test system: NCI-H23
NCI-H460 = test system: NCI-H460
NCI-H522 = test system: NCI-H522
OVCAR-3 = test system: OVCAR-3
OVCAR-5 = test system: OVCAR-5
SF-295 = test system: SF-295
SF-539 = test system: SF-539
SNB-75 = test system: SNB-75
SW-620 = test system: SW-620
ACHN = test system: ACHN
TK-10 = test system: TK-10
MDA-MB-231 = test system: MDA-MB-231

Structure (SMILES) | GI50 (A498) | GI50 (A549) | GI50 (CCRF-CEM) | GI50 (EKVX) | GI50 (HCT-15) [µM] | GI50 (IGROV-1) | GI50 (MCF7) | GI50 (NCI-H23) | GI50 (NCI-H460) | GI50 (NCI-H522) | GI50 (OVCAR-3) | GI50 (OVCAR-5) | GI50 (SF-295) | GI50 (SF-539) | GI50 (SNB-75) | GI50 (SW-620) | GI50 (ACHN) | GI50 (TK-10) | GI50 (MDA-MB-231)
CC(C)=CC(=O)OC1C2C(C)C(=O)OC2C(O)C(C)C2C=CC(=O)C21C (stereo not drawn) | 2.05 µM (inactive) | 8.65 µM (inactive) | 0.802 µM (active) | 2.92 µM (inactive) | 2 | 3.33 µM (inactive) | 2.43 µM (inactive) | 2.71 µM (inactive) | 1.96 µM (inactive) | 0.569 µM (active) | 2.75 µM (inactive) | 7.83 µM (inactive) | 6.14 µM (inactive) | 3.61 µM (inactive) | 2.72 µM (inactive) | 1.68 µM (inactive) | – | – | –
CC(C)CCCCCCCCCCCCC(=O)NCC(=O)NC1C(C)OC(Nc2ncnc3c2ncn3C)C(O)C1O (stereo not drawn) | 4.15 µM (inactive) | 8.28 µM (inactive) | > 100 µM (inactive) | > 100 µM (inactive) | > 100 | 2.94 µM (inactive) | > 100 µM (inactive) | 9.42 µM (inactive) | 3.09 µM (inactive) | 6.7 µM (inactive) | 3.52 µM (inactive) | 7.33 µM (inactive) | 6.4 µM (inactive) | 2.82 µM (inactive) | 2.33 µM (inactive) | 5.37 µM (inactive) | – | – | –
COc1ccc(C2C(Cl)C(=O)N2NC(=O)c2ccc(N)cc2)cc1 (stereo not drawn) | > 100 µM (inactive) | > 100 µM (inactive) | 93.5 µM (inactive) | > 100 µM (inactive) | > 100 | > 100 µM (inactive) | – | > 100 µM (inactive) | > 100 µM (inactive) | > 100 µM (inactive) | > 100 µM (inactive) | > 100 µM (inactive) | > 100 µM (inactive) | > 100 µM (inactive) | > 100 µM (inactive) | > 100 µM (inactive) | > 100 µM (inactive) | > 100 µM (inactive) | –
COc1ccc(C2Oc3cc(OC)c(O)cc3[C@@H]2C)cc1 (stereo partly drawn) | > 100 µM (inactive) | 59 µM (inactive) | 15.5 µM (inactive) | 56.4 µM (inactive) | 16.5 | > 10 µM (inactive) | – | 23.6 µM (inactive) | 57.9 µM (inactive) | 16.5 µM (inactive) | 26.5 µM (inactive) | > 100 µM (inactive) | > 100 µM (inactive) | > 100 µM (inactive) | 3.08 µM (inactive) | 17.1 µM (inactive) | 16.5 µM (inactive) | 45.8 µM (inactive) | –
CC(C(=O)O)c1ccc(-n2nnc3c(=O)[nH][nH]c(=O)c32)cc1 (stereo not drawn) | – | > 100 µM (inactive) | > 100 µM (inactive) | > 100 µM (inactive) | > 100 | – | > 100 µM (inactive) | > 100 µM (inactive) | > 100 µM (inactive) | – | > 100 µM (inactive) | > 100 µM (inactive) | > 100 µM (inactive) | – | – | – | > 100 µM (inactive) | > 100 µM (inactive) | > 100 µM (inactive)
CN(C)CCC(/C=C/c1ccccc1)=N\Nc1c(F)c(F)c(F)c(F)c1F | 62.2 µM (inactive) | 72.6 µM (inactive) | 55.6 µM (inactive) | > 100 µM (inactive) | 56.8 | > 100 µM (inactive) | – | > 100 µM (inactive) | 27.7 µM (inactive) | 64.1 µM (inactive) | > 100 µM (inactive) | > 100 µM (inactive) | 28.6 µM (inactive) | > 100 µM (inactive) | 9.82 µM (inactive) | > 100 µM (inactive) | 49.1 µM (inactive) | > 100 µM (inactive) | –
Nc1c(C(=O)c2ccccc2)nnc2ccccc12 | – | 37.3 µM (inactive) | – | 22.6 µM (inactive) | 30.1 | 26.6 µM (inactive) | 20.4 µM (inactive) | 24.8 µM (inactive) | 24 µM (inactive) | – | – | 36.5 µM (inactive) | – | 27.4 µM (inactive) | – | 41.2 µM (inactive) | 24.8 µM (inactive) | 24.3 µM (inactive) | 18.2 µM (inactive)
COc1ccc(S(=O)(=O)N/N=C(\C)CN2C(=O)c3ccccc3C2=O)cc1 | > 100 µM (inactive) | > 100 µM (inactive) | > 100 µM (inactive) | > 100 µM (inactive) | > 100 | > 100 µM (inactive) | – | > 100 µM (inactive) | > 100 µM (inactive) | > 100 µM (inactive) | > 100 µM (inactive) | > 100 µM (inactive) | > 100 µM (inactive) | > 100 µM (inactive) | > 100 µM (inactive) | > 100 µM (inactive) | > 100 µM (inactive) | > 100 µM (inactive) | –
CCOC(=O)[C@H]1Nc2ccc(Cl)cc2[C@H]2OCC[C@@H]12 | > 100 µM (inactive) | > 100 µM (inactive) | > 100 µM (inactive) | > 100 µM (inactive) | > 100 | > 100 µM (inactive) | – | > 100 µM (inactive) | > 100 µM (inactive) | > 100 µM (inactive) | > 100 µM (inactive) | > 100 µM (inactive) | > 100 µM (inactive) | > 100 µM (inactive) | > 100 µM (inactive) | > 100 µM (inactive) | > 100 µM (inactive) | > 100 µM (inactive) | –
CS/C(=N\c1ccccc1)N(c1ccccc1)c1nc(=[N+](C)C)ss1.[O-][Cl+3]([O-])([O-])[O-] | 12.4 µM (inactive) | 14.5 µM (inactive) | 0.508 µM (active) | 15.3 µM (inactive) | 2.26 | 1.22 µM (inactive) | – | 4.48 µM (inactive) | 0.0338 µM (active) | 0.353 µM (active) | 1.66 µM (inactive) | 15.3 µM (inactive) | 12.5 µM (inactive) | 4.15 µM (inactive) | 4.71 µM (inactive) | 1.36 µM (inactive) | 5.42 µM (inactive) | 14.5 µM (inactive) | –
CN1OC(=O)N(C)C1c1ccccc1 (stereo not drawn) | > 100 µM (inactive) | > 100 µM (inactive) | > 100 µM (inactive) | > 100 µM (inactive) | > 100 | > 100 µM (inactive) | > 100 µM (inactive) | > 100 µM (inactive) | > 100 µM (inactive) | > 100 µM (inactive) | > 100 µM (inactive) | > 100 µM (inactive) | > 100 µM (inactive) | > 100 µM (inactive) | > 100 µM (inactive) | > 100 µM (inactive) | – | – | –
CCC1(O)CC(CCN(Cc2ccccc2)C(=O)OCc2ccccc2)C(OCc2ccccc2)C1O (stereo not drawn) | – | 9.93 µM (inactive) | 16.1 µM (inactive) | 15.7 µM (inactive) | 13.4 | 20.4 µM (inactive) | 6.38 µM (inactive) | 14 µM (inactive) | 13.4 µM (inactive) | 10.1 µM (inactive) | 13 µM (inactive) | 17.7 µM (inactive) | 11.1 µM (inactive) | – | 12.5 µM (inactive) | 36.1 µM (inactive) | 17 µM (inactive) | 16.5 µM (inactive) | 27.2 µM (inactive)

Reference: ChEMBL document CHEMBL1201862, “PubChem BioAssay data set” (2004)
